Earlier results in patent US12691091B2, “Compositions comprising cetylated fatty acids for use in the treatment of gastric mucosa, diabetes and high blood glucose levels” (PHARMANUTRA S.P.A., priority 2019, dated 2026).

Details: European Union food additive E319

In the case of `CC(C)(C)c1cc(O)ccc1O` [TBHQ, Tert-butyl-hydroquinone], the “acceptable daily intake (ADI)” value is listed as 0.7 mg/kg of body weight.
